Test results: patent publication US6372785B1, “Synthesis of 1,8-dichloro-anthracene analogues and pharmaceutical compositions based thereon” (Keith Chan, President GloboAsia, LLC, priority 2000, dated 2002)

melting point [°C] | SMILES
155 to 157 | O=C(CCCBr)Oc1c2c(Cl)cccc2cc2cccc(Cl)c12 [Compound 3I, 1,8-Dichloro-9-(4-bromobutyroxy)anthracene]
183 to 185 | O=C(Oc1c2c(Cl)cccc2cc2cccc(Cl)c12)c1ccccc1 [Compound 3L, 1,8-Dichloro-9-benzoyloxyanthracene]
150 to 152 | CCC(=O)Oc1c2c(Cl)cccc2cc2cccc(Cl)c12 [Compound 3d, 1,8-Dichloro-9-propionoxyanthracene]
184 to 186 | CC(C)C(=O)Oc1c2c(Cl)cccc2cc2cccc(Cl)c12 [Compound 3e, 1,8-Dichloro-9-isobutyroxyanthracene]
152 to 154 | CCCC(=O)Oc1c2c(Cl)cccc2cc2cccc(Cl)c12 [Compound 3h, 1,8-Dichloro-9-butyroxyanthracene]
136 to 138 | CCCCCC(=O)Oc1c2c(Cl)cccc2cc2cccc(Cl)c12 [Compound 3k, 1,8-Dichloro-9-hexanoyloxyanthracene]
168 to 170 | Cc1ccccc1C(=O)Oc1c2c(Cl)cccc2cc2cccc(Cl)c12 [Compound 3m, 1,8-Dichloro-9-(o-toluoyloxy)anthracene]
196 to 198 | Cc1cccc(C(=O)Oc2c3c(Cl)cccc3cc3cccc(Cl)c23)c1 [Compound 3n, 1,8-Dichloro-9-(m-toluoyloxy)anthracene]
220 to 222 | Cc1ccc(C(=O)Oc2c3c(Cl)cccc3cc3cccc(Cl)c23)cc1 [Compound 3o, 1,8-Dichloro-9-(p-toluoyloxy)anthracene]

SMILES | melting point [°C]
CC(=O)Oc1c2c(Cl)cccc2cc2cccc(Cl)c12 [Compound 3a, 1,8-Dichloro-9-acetoxyanthracene] | 130 to 131
O=C(CBr)Oc1c2c(Cl)cccc2cc2cccc(Cl)c12 [Compound 3b, 1,8-Dichloro-9-bromoacetoxyanthracene] | 192 to 193
O=C(CCl)Oc1c2c(Cl)cccc2cc2cccc(Cl)c12 [Compound 3c, 1,8-Dichloro-9-chloroacetoxyanthracene] | 178 to 180
